Calls of active or inactive are those of the source.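 How the source made its calls: active means compounds giving half or more protection of infected cells from virus-caused growth loss, again on retest; inactive means the rest.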
Test system: CEM cells HIV-1 protection, formazan growth assay
Experiment: NCI AIDS Antiviral Assay
Conditions: for IC50: measured here: growth of uninfected CEM cells
How it was run: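 Human CEM cells, uninfected and HIV-1-infected, exposed to five drug concentrations; growth measured by soluble formazan assay and scored as percent protection from infection, with protecting compounds retested.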

| Structure (SMILES) | EC50 | IC50 | outcome |
| --- | --- | --- | --- |
| CCC(C)C(NC(=O)C(CCCCN)NC(=O)CNC(=O)C(NC(=O)C(NC(=O)C(NC(=O)C(Cc1ccccc1)NC(=O)C(C)NC(=O)C(CCCNC(=N)N)NC(=O)CNC(=O)C1CCCN1C(=O)CNC(=O)C(CCCNC(=N)N)NC(=O)C(CCC(N)=O)NC(=O)C(NC(=O)C(CCCNC(=N)N)NC(=O)C(NC(=O)C(CO)NC(=O)C(CCCCN)NC(=O)C(CCCNC(=N)N)NC(=O)C(NC(=O)C(CC(N)=O)NC(=O)C(N)CC(N)=O)C(C)O)C(C)CC)C(C)CC)C(C)C)C(C)OC1OC(CO)C(O)C(O)C1NC(C)=O)C(C)CC)C(=O)NCC(N)=O (stereo unspecified) | 24.5 µM | 50.1 µM | – |
| O=C(O)Cn1ccc(=O)c2cc([N+](=O)[O-])ccc21 | > 200 µM | > 200 µM | – |
| Cc1c(Cl)cccc1N1C(=O)C(Cl)=C(Cl)C1=O | – | – | inactive |
| CC(C)=COS(=O)(=O)C(F)(F)F | > 200 µM | 110 µM | – |
| Cc1cc(NS(=O)(=O)c2ccc(Nc3c4ccccc4nc4c(C(=O)NCCN(C)C)ccc(Cl)c34)cc2)no1 | – | – | inactive |
| CCOC(=O)N1CC2OC(n3cc(C)c(=O)[nH]c3=O)CC2O1 (stereo unspecified) | > 200 µM | > 200 µM | – |
| C[C@H]1[C@H](N2CCCC2)O[Si](C(C)(C)C)(C(C)(C)C)[C@@H]1C | > 200 µM | > 200 µM | – |
| Nc1nc2ccccc2nc1N | > 200 µM | > 200 µM | – |
| C=CCOC(C)(C)C1=CCC(C)CC1 (stereo unspecified) | > 100 µM | > 100 µM | – |
| C=C(C)CN(CC(=C)C)C(=N)OCC1CCCO1 (stereo unspecified) | > 200 µM | > 200 µM | – |
| COC(=O)c1cc(C)ccc1CC(Cc1ccccc1C)C(=O)OC (stereo unspecified) | > 200 µM | 37.2 µM | – |
| Cc1cccc(NC(=O)/C=C/c2ccc(N(CCC#N)CCC#N)cc2C)c1 | > 676 µM | > 676 µM | – |
| O=C1CSC2=NCC3(NN12)c1ccccc1-c1ccccc13 | > 200 µM | > 100 µM | – |
| O=C1N[C@@H]([C@H]2CC[C@H](Cl)CN2)C(=O)N[C@H]1[C@H]1CC[C@H](Cl)CN1 | > 5.89 µM | 0.0141 µM | – |
| O/N=C/c1ccc(O)c(O)c1 | > 1620 µM | 87.1 µM | – |
| N#Cc1cnsc1 | – | – | inactive |
| Nc1nnnn1CCCl | > 200 µM | > 200 µM | – |
| CCC(C)N1CN(c2ccccc2)C2(CCN(CCCSc3ccc(F)cc3)CC2)C1=O (stereo unspecified) | > 200 µM | 4.17 µM | – |
| COc1ccc(C2N(c3ccc(F)c([N+](=O)[O-])c3)C(=O)N3C(c4ccc(OC)cc4)N(c4ccc(F)c([N+](=O)[O-])c4)C(=O)N23)cc1 (stereo unspecified) | > 200 µM | 33.9 µM | – |
| O=C(O)c1nc2ccccc2n2cccc12 | > 200 µM | > 200 µM | – |
| O=C(Nc1cccc(-c2nc3ccccc3[nH]2)c1)c1ccc(C(=O)Nc2cccc(-c3nc4ccccc4[nH]3)c2)cc1 | > 200 µM | 91.2 µM | – |
| Nc1ncc2c(ncn2CC(O)CO)n1 (stereo unspecified) | > 1200 µM | > 1200 µM | – |
| CCCCCCCCCCCCC(N=[N+]=[N-])C(=O)OCC1OC(n2cc(C)c(=O)[nH]c2=O)CC1O (stereo unspecified) | > 20.4 µM | > 20.4 µM | – |
| CCCCN(C=O)CCc1ccccc1 | > 1230 µM | > 1230 µM | – |
| CC1=NN(C(=O)Cc2ccccc2)C(=O)/C1=C\c1cccc(O)c1 | > 22.4 µM | > 22.4 µM | – |
| O=C(Nc1ccccc1-c1nn(C(=S)Nc2ccccc2)c(=S)n(C(=S)Nc2ccccc2)c1=O)C(F)(F)F | – | – | inactive |
| NCCCC(N)(C(=O)O)C(F)F (stereo unspecified) | > 200 µM | 129 µM | – |

| Structure (SMILES) | EC50 | IC50 | outcome |
| --- | --- | --- | --- |
| CCOC(=O)C1(Br)C(c2ccccc2)NC(=O)NC1(C)Br (stereo unspecified) | > 85.1 µM | > 85.1 µM | – |
| CS(=O)(=O)c1ccc(-c2cc(-c3ccc(S(C)(=O)=O)cc3)[n+](-c3cc(-c4ccccc4)c([O-])c(-c4ccccc4)c3)c(-c3ccc(S(C)(=O)=O)cc3)c2)cc1 | > 692 µM | > 692 µM | – |
| COc1ccc(/C=N\N2C(=O)Cc3ccccc32)cc1 | > 37.2 µM | > 37.2 µM | – |
| Cc1noc(C)c1CCCOC1COc2ccccc2OCCOCCOc2ccccc2OC1 | > 100 µM | > 100 µM | – |
| Cc1cc(C)n2nc(N)c(C#N)c2c1C#N | > 12.9 µM | > 12.9 µM | – |
| COc1cc2c(c(OC)c1OC)C(=O)[C@@H]1[C@H]2N1C(=O)NCCCl | > 200 µM | 45.7 µM | – |
| C[C@@H]1C(=O)O[C@@H]2C[C@@]1(C)[C@@H]1C(=O)C3(O)OC14C2(C)OC(=O)[C@@]4(O)CCC1C3C(O)C=C2CC=CC(=O)[C@@]21C (stereo partly specified) | > 200 µM | 20 µM | – |
| COC(=O)Cc1cc(O)c(C/C=C(\C)CC/C=C(\C)C(O)C(=O)C=C(C)C)cc1O (stereo unspecified) | > 15.8 µM | 9.33 µM | – |
| CCc1cc(Cc2cc(CC)c(NC(=O)C(=O)Cc3ccccn3)c(CC)c2Cl)c(Cl)c(CC)c1NC(=O)C(=O)Cc1ccccn1 | > 72.4 µM | > 72.4 µM | – |
| Cn1c(=O)c(=O)n(C)c2cc(Cl)c(Cl)cc21 | > 200 µM | > 200 µM | – |
| C(#CC[P+](c1ccccc1)(c1ccccc1)c1ccccc1)C[P+](c1ccccc1)(c1ccccc1)c1ccccc1 | > 200 µM | 36.3 µM | – |
| O=C1C2C3SC(c4c3ccc3ccccc43)C2C(=O)N1c1ccccc1 (stereo unspecified) | > 2.95 µM | > 2.95 µM | – |
| O=C1C=C(Nc2ccccc2C(=O)CC(=O)C(=O)Nc2cccc([N+](=O)[O-])c2)c2ccccc2C1=O | > 20.9 µM | 15.5 µM | – |
| COC(=O)C1=C(C)N2[C@H](C(=O)O)CO[C@@]2(C)[C@H](C(=O)OC)[C@H]1c1cccc([N+](=O)[O-])c1 | > 200 µM | > 200 µM | – |
| COc1cc(CC2Cc3cccc(=O)c(O)c3C(=O)O2)cc(OC)c1OC (stereo unspecified) | > 120 µM | 17.4 µM | – |
| CC(=O)NCCSSSCCNC(C)=O | > 200 µM | 0.891 µM | – |
| CC(=O)c1ccc(-c2oc(-c3ccccc3)cc2-c2ccc3c(c2)OCO3)s1 | > 200 µM | 22.9 µM | – |
| O=C(NCCCCCCCCNC(=O)c1cc(-c2ccccc2)nc2ccccc12)c1cc(-c2ccccc2)nc2ccccc12 | > 200 µM | > 200 µM | – |
| [O-]c1c2cc(-[n+]3c(-c4ccccc4)cc(-c4ccccc4)cc3-c3ccccc3)cc1CO[C@@H](c1ccccc1)[C@H](c1ccccc1)OCCOCCO[C@@H](c1ccccc1)[C@H](c1ccccc1)OC2 | > 2 µM | 0.105 µM | – |
| CNC(=O)OCCOc1ccccc1 | > 200 µM | > 200 µM | – |
| c1ccc(C2Nc3ccccc3C3OCCCC23)cc1 (stereo unspecified) | > 70.8 µM | > 70.8 µM | – |
| CC[n+]1c(/C=C/c2ccc(N(CCCl)CCCl)cc2)ccc2cc(I)ccc21 | – | – | inactive |
| Cc1nc2ccccc2c(=O)n1NC(=S)Nc1cccc(Cl)c1 | > 20.9 µM | > 20.9 µM | – |
| CC(Cc1ccccc1)NN(CS(=O)(=O)O)CS(=O)(=O)O (stereo unspecified) | – | – | inactive |
| Oc1[nH]c2ccccc2c1N=NC(=S)N1CCCC1 | > 200 µM | 1.55 µM | – |
| COC(=O)C1CCC(=O)N1CN(C(C)=O)c1cccc(O)c1 (stereo unspecified) | > 200 µM | > 200 µM | – |
| CN(C)c1ccc(/C=C(\NC(=O)c2ccccc2)C(=O)Nc2ccccc2C(=O)N/N=C/c2ccc(N(C)C)cc2)cc1 | > 25.1 µM | > 25.1 µM | – |

| Structure (SMILES) | EC50 | IC50 | outcome |
| --- | --- | --- | --- |
| c1ccc(N=C(N2CCOCC2)N(CCN2CCOCC2)c2ccccc2)cc1 | > 200 µM | 182 µM | – |
| CCC1(CC=C(C)C)Oc2ccccc2-n2cccc2C1=O (stereo unspecified) | – | – | active |
| OC[C@@H](O)[C@H]1NC[C@@H](O)[C@H]1O | > 200 µM | > 200 µM | – |
| COc1cc2c(c3oc(=O)cc(-c4ccccc4)c13)C(=O)[C@H](C)[C@@H](C)O2 | > 200 µM | > 200 µM | – |
| O=[N+]([O-])c1ccc(OCCC[P+](c2ccccc2)(c2ccccc2)c2ccccc2)c(Cl)c1 | > 200 µM | 1.7 µM | – |
| Cc1ccc(/C(O)=C/C(=O)C(=O)NC23CC4CC(CC(C4)C2)C3)cc1 | > 200 µM | 77.6 µM | – |
| CCC1(N=[N+]=[N-])C(=O)Nc2cc(C)ccc2C1=O (stereo unspecified) | > 200 µM | > 100 µM | – |
| CC(C)(C)NNC(=O)/C(=C/c1ccc([N+](=O)[O-])cc1)NC(=O)c1ccccc1 | > 7.08 µM | > 7.08 µM | – |
| COC(=O)c1ccccc1/C=C1/Cc2ccccc2C1=O | > 200 µM | > 200 µM | – |
| COc1cc(C=C2N=C(c3ccccc3)N(n3c(-c4ccccc4)nc4ccccc4c3=O)C2=O)cc(OC)c1OC | > 200 µM | 30.9 µM | – |
| COc1ccc(-n2c(N)c(C#N)c(C#N)c2-c2ccccc2)cc1 | > 200 µM | 12 µM | – |
| C=c1[nH]c(=O)c(=C)[nH]c1=O | > 72.4 µM | 26.3 µM | – |
| CCOC(=O)c1c(C(F)(F)F)c2cc(C(=O)C(F)(F)F)c3ccccc3c2n1C | > 42.7 µM | > 42.7 µM | – |
| CCOC(=O)Nc1ccc2c(c1)c(CCCCCCc1nc3ccccc3c3ccc(NC(=O)OCC)cc13)nc1ccccc12 | > 100 µM | 21.4 µM | – |
| CC1CCCC(C)[N+]1=C(Nc1cccc(Cl)c1)c1ccccc1 (stereo unspecified) | > 200 µM | 105 µM | – |
| Cc1cc(NS(=O)(=O)c2ccc(Nc3c4ccccc4nc4c(C(=O)Nc5ccc(S(N)(=O)=O)cc5)cccc34)cc2)no1 | 25.1 µM | 50.1 µM | – |
| c1ccc(C2N=NN(c3ccccc3)C2N2CCCCC2)cc1 (stereo unspecified) | – | – | inactive |
| CCCCn1cnnc1NS(=O)(=O)c1cc(C)c(Cl)cc1SCC(=O)O | > 200 µM | > 200 µM | – |
| CC(C)CCC[C@@H](C)C1CCC2[C@@H]3CC=C4C[C@@H](C(=O)NCC[N+](C)(C)CCCS(=O)(=O)[O-])CC[C@]4(C)C3CC[C@@]21C (stereo partly specified) | – | – | inactive |
| CN(CO)c1nc(N(C)CO)nc(N(C)CO)n1 | > 26.3 µM | 24 µM | – |
| CCCCNC(=O)/C(=C/c1cccc(N(CC)CC)c1)NC(=O)c1ccccc1 | > 200 µM | 25.1 µM | – |
| CC(C)(C)C1CCC2c3c([nH]c4ccccc34)C3C(=O)N(c4ccc(C(=O)O)cc4)C(=O)C3C2C1 (stereo unspecified) | > 200 µM | 14.5 µM | – |
| Cc1c[nH]c(C(=O)O)c1-c1ccc2c(-c3ccccc3)nc3ccccc3n12 | > 200 µM | 33.1 µM | – |
| O=C(O)C1CCSS1 (stereo unspecified) | > 457 µM | 263 µM | – |
| Cn1ccc(C(=O)NCCN(CCNC(=O)c2ccn(C)c(=O)c2O)CCNC(=O)c2ccn(C)c(=O)c2O)c(O)c1=O | > 200 µM | > 200 µM | – |
| COc1cc2c(c3c1c(=O)c1ccccc1n3C)C=CC1(CCCC1)O2 | > 200 µM | 11 µM | – |

Source: PubChem BioAssay AID179 (DTP/NCI, 2004)
